Values joined by “and” are separate entries in the source; they are usually repeats but may differ in a detail not shown here. Identical values can stand only once. “Also recorded” adds a separate entry of the source. Like-named read-outs stand apart in the source and are kept apart here.
Legend:
human ADA [1] = details: cited from earlier work; for inhibition of human ADA: result in words
PfADA [2] = details: cited from earlier work
PfADA [3] = assay: Inhibition of PfADA; assay type: biochemical, Plasmodium falciparum; details: times weaker than CF
PaMTADA [4] = target: T1, PaMTADA (Pseudomonas aeruginosa, UniProt Q9HZ64); assay type: biochemical; details: times weaker than MTDCF
human ADA [5] = details: cited from earlier work
PaMTADA [6] = target: T1, PaMTADA; assay type: biochemical
PfADA [7] = details: substrate; ref Ting et al. [13]; cited from earlier work
[8] = target: T2, cellular PaMTADA activity (Pseudomonas aeruginosa, UniProt Q9HZ64); assay: Inhibition of cellular PaMTADA; assay type: cell-based, P. aeruginosa PAO1
T2 sequence (Q9HZ64 1-444): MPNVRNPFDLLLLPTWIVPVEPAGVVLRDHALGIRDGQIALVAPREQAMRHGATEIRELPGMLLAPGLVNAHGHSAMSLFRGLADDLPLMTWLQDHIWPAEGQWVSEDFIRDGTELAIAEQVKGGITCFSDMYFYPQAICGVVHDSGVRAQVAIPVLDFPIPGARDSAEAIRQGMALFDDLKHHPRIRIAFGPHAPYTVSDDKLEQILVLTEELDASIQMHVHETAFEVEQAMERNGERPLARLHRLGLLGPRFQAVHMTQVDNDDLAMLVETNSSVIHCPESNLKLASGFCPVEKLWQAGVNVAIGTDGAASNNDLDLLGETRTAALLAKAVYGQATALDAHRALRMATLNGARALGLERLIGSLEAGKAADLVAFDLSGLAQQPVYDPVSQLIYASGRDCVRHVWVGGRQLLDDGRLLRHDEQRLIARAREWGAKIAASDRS

PaMTADA [9] = target: T3, PaMTADA (Pseudomonas aeruginosa, UniProt Q9HZ64); assay: Inhibition of PaMTADA activity in cell lysates; assay type: biochemical, P. aeruginosa PAO1; details: cell lysate, 50 nM inhibitor
T3 sequence (Q9HZ64 1-444): T2 sequence (Q9HZ64 1-444)

P. aeruginosa PAO1 = assay: Growth of P. aeruginosa PAO1 with or without MTCF; assay type: cell-based; details: up to 1 μM, 36 hours, 37 °C
PaMTADA [10] = assay type: biochemical, Pseudomonas aeruginosa; details: times higher than PfADA
bovine ADA = details: result in words; cited from earlier work
[11] = read-out: Ki* from slow-onset inhibition, Ki* values
[12] = equilibrium dissociation constant
[13] = substrate, ref Tyler et al. [16]

## OC[C@H]1O[C@@H](n2cnc3c2N=CNC[C@H]3O)[C@H](O)[C@@H]1O [Coformycin (CF), (2R,3R,4S,5R)-2-((R)-8-hydroxy-7,8-dihydroimidazo[4,5-d][1,3]diazepin-3(6H)-yl)-5-(hydroxymethyl)tetrahydrofuran-3,4-diol, reference compound]
Human ADA [1]; [11]
  Ki: 0.11 ± 0.02 nM
PfADA [2]; [11]
  Ki: 0.08 ± 0.02 nM

## CSC[C@H]1O[C@@H](n2cnc3c2N=CNC[C@H]3O)C[C@@H]1O [MTDCF, 5′-methylthio-2′-deoxycoformycin]
Human ADA [1]; [12]
  Ki: > 10000 nM
Human ADA [1]
  inhibition of human ADA: no inhibitory effect
PfADA [3]
  binding affinity for PfADA relative to CF: 9 times
PfADA [2]; [11]
  Ki: 0.7 ± 0.2 nM

## CCCSC[C@H]1O[C@@H](n2cnc3c2N=CNC[C@H]3O)C[C@@H]1O [PrTDCF, 5′-propylthio-2′-deoxycoformycin]
Human ADA [1]; [12]
  Ki: > 10000 nM
PfADA [3]
  binding affinity for PfADA relative to CF: 150 times
PaMTADA [4]
  binding to PaMTADA relative to MTDCF: 8 times
PfADA [2]; [12]
  Ki: 12 ± 1 nM

## O[C@@H]1CNC=Nc2c1ncn2[C@H]1C[C@H](O)[C@@H](CSc2ccccc2)O1 [PhTDCF, 5′-phenylthio-2′-deoxycoformycin]
PfADA [2]; [12]
  Ki: 60 ± 10 nM

## Nc1ncnc2c1ncn2[C@@H]1O[C@H](CO)[C@@H](O)[C@H]1O [adenosine]
Human ADA [5]; [13]
  Km: 22 ± 3 µM
  kcat: 36 ± 1 s⁻¹
PaMTADA [6]; substrate, 25 °C, pH 7.4
  kcat: 17 ± 1 s⁻¹
PfADA [7]
  kcat: 1.8 ± 0.1 s⁻¹

## CSC[C@H]1O[C@@H](n2cnc3c2N=CNC[C@H]3O)[C@H](O)[C@@H]1O [MTCF, 5′-methylthiocoformycin]
[8]; 500 nM MTCF in LB medium plus 100 nM MTCF added to cell lysate
  PaMTADA activity: All PaMTADA activity was inhibited
[8]; MTCF in LB medium
  concentration of maximal inhibition: 10 nM
Human ADA [1]; [12]
  Ki: > 10000 nM
Human ADA [1]
  inhibition of human ADA: no significant inhibition; also recorded: no inhibitory effect; also recorded: no significant inhibitory effects
PaMTADA [9]
  degradation of MTA: completely blocked
P. aeruginosa PAO1
  effect on cell growth based on OD600: no effect
PfADA [2]; [11]
  Ki: 0.4 ± 0.1 nM

## 5′-methylthioadenosine [MTA]
Human ADA [5]; result in words
  use as substrate by human ADA: do not utilize
Human ADA [5]; [13]
  kcat: < 0.02 s⁻¹
PaMTADA [6]; MTA over adenosine
  catalytic efficiency (kcat/Km) for MTA relative to adenosine: 40 fold
PaMTADA [6]; substrate, 25 °C, pH 7.4
  Km: 1.5 ± 0.3 µM
  kcat: 24.6 s⁻¹ and 24.6 ± 0.8 s⁻¹
PaMTADA [10]
  catalytic efficiency of PaMTADA on MTA relative to PfADA: 160 times
Bovine ADA
  use as substrate by bovine ADA: do not utilize
PfADA [7]
  Km: 170 ± 20 µM
  kcat: 15.0 ± 0.9 s⁻¹

Source: paper PMC3567251 (Biochemistry, 2012)
